# From patent publication US5935990A, “Substituted pyrrolyl compounds for the treatment of inflammation” (G.D. Searle & Co., priority 1997, dated 1999)
# Tested on: rat paw edema
# Experiment: Rat Carrageenan Foot Pad Edema Test
# Format: in vivo, rat (Male Sprague-Dawley)
# Details: oral, 3 h after carrageenan injection
# Procedure: The carrageenan foot edema test was performed with materials, reagents and procedures essentially as described by Winter, et al., (Proc. Soc. Exp. Biol. Med., 111, 544 (1962)). Male Sprague-Dawley rats were selected in each group so that the average body weight was as close as possible. Rats were fasted with free access to water for over sixteen hours prior to the test. The rats were dosed orally (1 mL) with compounds suspended in vehicle containing 0.5% methylcellulose and 0.025% surfactant, or with vehicle alone. One hour later a subplantar injection of 0.1 mL of 1% solution of carrageenan/sterile 0.9% saline was administered and the volume of the injected foot was measured with a displacement plethysmometer connected to a pressure transducer with a digital indicator. Three hours after the injection of the carrageenan, the volume of the foot was again measured. The average foot swelling in a group of drug-treated animals was compared with that of a group of placebo-treated animals and the percentage inhibition of edema was determined (Otterness and Bliven, Laboratory Models for Testing NSAIDs, in Non-steroidal Anti-Inflammatory Drugs, (J. Lombardino, ed. 1985)).
row,SMILES,RAT PAW EDEMA % Inhibition @ 30mg/kg body weight [%]
1,"CS(=O)(=O)c1ccc(-n2cccc2-c2ccc(F)cc2)cc1 [Example 8, 2-(4-Fluorophenyl)--1-[4-(methylsulfonyl)phenyl]-1H-pyrrole]",56

# Tested on: not listed separately
# Experiment: Analgesia (Table I)
# Format: in vivo
# Details: not given
row,SMILES,ANALGESIA % Inhibition @ 30mg/kg body weight [%]
1,"CS(=O)(=O)c1ccc(-n2cccc2-c2ccc(F)cc2)cc1 [Example 8, 2-(4-Fluorophenyl)--1-[4-(methylsulfonyl)phenyl]-1H-pyrrole]",47

# Tested on: COX-1
# Experiment: Assay for COX-1 activity in vitro (PGE2 formed, ELISA)
# Format: biochemical, human or murine
# Details: recombinant COX-1 from SF9 insect cells, arachidonic acid 10 μM, pH 8.0, 10-20 min pre-incubation
# Procedure: The COX-2 inhibition activity of the compounds of this invention illustrated in the Examples was determined by the following methods.
# a. Preparation of recombinant COX baculoviruses
# Recombinant baculoviruses were isolated by transfecting 4 μg of baculovirus transfer vector DNA into SF9 insect cells (2×10^8) along with 200 ng of linearized baculovirus plasmid DNA by the calcium phosphate method. See M. D. Summers and G. E. Smith, A Manual of Methods for Baculovirus Vectors and Insect Cell Culture Procedures, Texas Agric. Exp. Station Bull. […] Recombinant viruses were purified by three rounds of plaque purification and high titer (10^7-10^8 pfu/mL) stocks of virus were prepared. For large scale production, SF9 insect cells were infected in 10 liter fermentors (0.5×10^6 /mL) with the recombinant baculovirus stock such that the multiplicity of infection was 0.1. […] The homogenate was centrifuged at 10,000×G for 30 minutes, and the resultant supernatant was stored at -80° C. before being assayed for COX activity.
# COX activity was assayed as PGE2 formed/pg protein/time using an ELISA to detect the prostaglandin released. CHAPS-solubilized insect cell membranes containing the appropriate COX enzyme were incubated in a potassium phosphate buffer (50 mM, pH 8.0) containing epinephrine, phenol, and heme with the addition of arachidonic acid (10 μM). […] The PGE2 formed was measured by standard ELISA technology (Cayman Chemical).
row,SMILES,IC50 [µM]
1,"Cc1ccc(-c2ccc(S(C)(=O)=O)cc2)n1-c1ccc(F)cc1 [Example 1, 1-(4-Fluorophenyl)-2-methyl-5-[4-(methylsulfonyl)phenyl]-1H-pyrrole]",> 100
2,"Cc1ccc(-c2ccc(S(C)(=O)=O)cc2)n1C1CCCCC1 [Example 7, 1-Cyclohexyl-2-methyl-5-[4-(methylsulfonyl)phenyl]-1H-pyrrole]",62.4
3,"NS(=O)(=O)c1ccc(-n2cccc2-c2ccc(F)cc2)cc1 [Example 9, 4-[2-(4-Fluorophenyl)-1H-pyrrol-1-yl]benzenesulfonamide]",10.4
4,"CS(=O)(=O)c1ccc(-c2cccn2-c2ccc(F)cc2)cc1 [Example 10, 1-(4-Fluorophenyl)-2-[4-(methylsulfonyl)phenyl]-1H-pyrrole]",> 100
5,"Cc1c(S(=O)(=O)C(F)(F)F)cc(-c2ccc(S(C)(=O)=O)cc2)n1-c1ccc(F)cc1 [Example 16, 1-(4-Fluorophenyl)-2-methyl-5-[4-(methylsulfonyl)phenyl]-3-[(trifluoromethyl)sulfonyl]-1H-pyrrole]",> 100
6,"Cc1c(COc2cccc(Cl)c2)cc(-c2ccc(S(C)(=O)=O)cc2)n1-c1ccc(F)cc1 [Example 25, 3-[(3-Chlorophenoxy)methyl]-1-(4-fluorophenyl)-2-methyl-5-[4-(methylsulfonyl)phenyl]-1H-pyrrole]",> 100
7,"Cc1c(COc2ccc(Cl)cc2)cc(-c2ccc(S(C)(=O)=O)cc2)n1-c1ccc(F)cc1 [Example 26, 3-[(4-Chlorophenoxy)methyl]-1-(4-fluorophenyl)-2-methyl-5-[4-(methylsulfonyl)phenyl]-1H-pyrrole]",> 100
